Key:
EmBioE (BioE) = molecular target: T1, EmBioE (BioE); test: SPR (Biacore, CM5 chip); supported by urea-PAGE inhibition of C18-ACP cleavage (Ki […]); assay type: binding, Elizabethkingia meningoseptica
T1 construct: 6x His-tagged EmBioE

EmBioE = molecular target: T2, EmBioE; test: SPR, confirmed by MST; HPLC shows conversion to pimeloyl-CoA; assay type: binding, Elizabethkingia meningoseptica
T2 construct: gene bioE; 6x His-tagged EmBioE

C=CCn1c(SCC(=O)Nc2scc(-c3ccc(C)cc3)c2C(=O)OC)nnc1-c1ccc(N(C)C)cc1 [compound 466982, 466982]
Kd (EmBioE (BioE)): ~14.6 µM

CCCCCCCCCCCCCCCCCC(=O)SCCNC(=O)CCNC(=O)[C@H](O)C(C)(C)COP(=O)(O)OP(=O)(O)OC[C@H]1O[C@@H](n2cnc3c(N)ncnc32)[C@H](O)[C@@H]1OP(=O)(O)O [C18-CoA, stearoyl-CoA]
Kd (EmBioE): ~20.1 µM

— paper PMC12915131, “Balanced Expression of the Diiron Oxygenase BioE Is Essential for Biotin Homeostasis in Elizabethkingia meningoseptica” (Advanced Science, 2025)
